Several values for one entry are separate records, joined by “and”; a condition that tells them apart may be missing. Identical values can stand only once. Inconclusive results and toxic doses are left out. No stated cut-off is given here; in the data, active means T/C of 150% or more; inactive means T/C below 125%.
System: L1210 leukemia ip in BDF1 mice, survival T/C
Assay: NCI In Vivo Anticancer Drug Screen. Data for tumor model L1210 Leukemia (intraperitoneal) in B6D2F1 (BDF1) mice
Conditions: endpoint: mean survival time, higher = longer survival
Summary of the method: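 Tumor was transplanted into mice, which were then dosed with test compound or vehicle alone. Survival was recorded for each group, and the treated figure was expressed relative to the control figure.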

[1] = dose: 12.5 mg/kg/injection, schedule: Q04DX003 (ip), vehicle: saline
[2] = dose: 25.0 mg/kg/injection, schedule: Q04DX003 (ip), vehicle: saline
[3] = dose: 50.0 mg/kg/injection, schedule: Q04DX003 (ip), vehicle: saline
[4] = dose: 100.0 mg/kg/injection, schedule: Q01DX001 (ip), vehicle: saline
[5] = dose: 100.0 mg/kg/injection, schedule: Q01DX001 (ip), vehicle: saline with Tween-80
[6] = dose: 200.0 mg/kg/injection, schedule: Q01DX001 (ip), vehicle: saline with Tween-80
[7] = dose: 100.0 mg/kg/injection, schedule: Q04DX002 (ip), vehicle: Klucel (hydroxypropylcellulose) (HPC)
[8] = dose: 200.0 mg/kg/injection, schedule: Q01DX001 (ip), vehicle: saline
[9] = dose: 400.0 mg/kg/injection, schedule: Q01DX001 (ip), vehicle: saline
[10] = dose: 100.0 mg/kg/injection, schedule: Q04DX002 (ip), vehicle: saline
[11] = dose: 200.0 mg/kg/injection, schedule: Q04DX002 (ip), vehicle: saline
[12] = dose: 100.0 mg/kg/injection, schedule: Q04DX003 (ip), vehicle: Klucel (hydroxypropylcellulose) (HPC)
[13] = dose: 200.0 mg/kg/injection, schedule: Q04DX003 (ip), vehicle: Klucel (hydroxypropylcellulose) (HPC)
[14] = dose: 400.0 mg/kg/injection, schedule: Q04DX003 (ip), vehicle: Klucel (hydroxypropylcellulose) (HPC)
[15] = dose: 100.0 mg/kg/injection, schedule: Q01DX009 (ip), vehicle: saline with Tween-80

Measured: T/C

NC1=NCc2ccccc21
inactive: [1] 102 % of control | [2] 93 % of control | [3] 91 % of control

O=S(=O)(Nc1ccccc1)c1ccc([As](=O)(O)O)cc1
inactive: [4] 103 % of control

Oc1cccc(C(c2ccccc2)c2ccccc2)c1
inactive: [5] 94 % of control | [6] 94 % of control

O=C(O)C(O)C(O)C(=O)O.O=C(O)C(O)C(O)C(=O)O.[O]=[V].[O]=[V] (stereo not drawn)
inactive: dose: 6.25 mg/kg/injection, schedule: Q01DX009 (ip), vehicle: saline 101 % of control and 110 % of control | dose: 6.25 mg/kg/injection, schedule: Q04DX003 (ip), vehicle: saline 92 % of control and 106 % of control | dose: 12.5 mg/kg/injection, schedule: Q01DX009 (ip), vehicle: saline 101 % of control and 96 % of control | [1] 92 % of control and 96 % of control | dose: 25.0 mg/kg/injection, schedule: Q01DX009 (ip), vehicle: saline 98 % of control and 94 % of control | [2] 96 % of control and 97 % of control and 109 % of control | [3] 104 % of control | dose: 100.0 mg/kg/injection, schedule: Q04DX003 (ip), vehicle: saline sonified 91 % of control

O=S1(=O)CC2(N3CCCC3)C3c4ccccc4C(c4ccccc43)C21 (stereo not drawn)
inactive: dose: 25.0 mg/kg/injection, schedule: Q04DX002 (ip), vehicle: Klucel (hydroxypropylcellulose) (HPC) 102 % of control | dose: 50.0 mg/kg/injection, schedule: Q04DX002 (ip), vehicle: Klucel (hydroxypropylcellulose) (HPC) 102 % of control | [7] 117 % of control

O=C1C[C@@H]2OCC=C3C[N+]4([O-])CC[C@]56c7ccccc7N1[C@H]5[C@H]2[C@H]3C[C@@H]64 (stereo partly drawn)
inactive: dose: 150.0 mg/kg/injection, schedule: Q01DX001 (ip), vehicle: saline 106 % of control

Nc1c(Cl)ccc2c(Cl)ccnc12
inactive: [4] 111 % of control | dose: 150.0 mg/kg/injection, schedule: Q04DX003 (ip), vehicle: other 89 % of control | [8] 98 % of control | dose: 300.0 mg/kg/injection, schedule: Q04DX003 (ip), vehicle: other 97 % of control | [9] 104 % of control

Cc1cc(NC(=O)COc2ccc([N+](=O)[O-])cc2Cl)ccc1S(=O)(=O)F
inactive: [5] 102 % of control | [6] 98 % of control | dose: 400.0 mg/kg/injection, schedule: Q01DX001 (ip), vehicle: saline with Tween-80 93 % of control

CCCC(=O)N1CCCC(C)C1 (stereo not drawn)
inactive: [10] 111 % of control | [11] 107 % of control | dose: 400.0 mg/kg/injection, schedule: Q04DX002 (ip), vehicle: saline 104 % of control

O=C(Nc1ccc(O)cc1)OCc1ccccc1
inactive: dose: 45.0 mg/kg/injection, schedule: Q04DX003 (ip), vehicle: Klucel (hydroxypropylcellulose) (HPC) 105 % of control | dose: 50.0 mg/kg/injection, schedule: Q01DX009 (ip), vehicle: Klucel (hydroxypropylcellulose) (HPC) 102 % of control | dose: 50.0 mg/kg/injection, schedule: Q04DX003 (ip), vehicle: Klucel (hydroxypropylcellulose) (HPC) 91 % of control | dose: 65.0 mg/kg/injection, schedule: Q04DX003 (ip), vehicle: Klucel (hydroxypropylcellulose) (HPC) 101 % of control | dose: 100.0 mg/kg/injection, schedule: Q01DX001 (ip), vehicle: Klucel (hydroxypropylcellulose) (HPC) 109 % of control | dose: 100.0 mg/kg/injection, schedule: Q01DX009 (ip), vehicle: Klucel (hydroxypropylcellulose) (HPC) 104 % of control | [12] 95 % of control | dose: 200.0 mg/kg/injection, schedule: Q01DX001 (ip), vehicle: Klucel (hydroxypropylcellulose) (HPC) 106 % of control | dose: 200.0 mg/kg/injection, schedule: Q01DX009 (ip), vehicle: Klucel (hydroxypropylcellulose) (HPC) 96 % of control | [13] 105 % of control and 106 % of control | dose: 400.0 mg/kg/injection, schedule: Q01DX001 (ip), vehicle: Klucel (hydroxypropylcellulose) (HPC) 97 % of control | dose: 400.0 mg/kg/injection, schedule: Q01DX009 (ip), vehicle: Klucel (hydroxypropylcellulose) (HPC) 94 % of control | [14] 98 % of control

C#CCNCc1ccccc1
inactive: dose: 50.0 mg/kg/injection, schedule: Q01DX009 (ip), vehicle: saline with Tween-80 101 % of control and 92 % of control | [4] 100 % of control | [15] 101 % of control and 106 % of control | [10] 94 % of control and 96 % of control and 108 % of control | dose: 100.0 mg/kg/injection, schedule: Q04DX003 (ip), vehicle: saline 98 % of control | [8] 96 % of control | [11] 101 % of control (2×) and 112 % of control | dose: 200.0 mg/kg/injection, schedule: Q04DX003 (ip), vehicle: saline 101 % of control | [9] 98 % of control

Nc1nc(NCCCc2ccccc2)c([N+](=O)[O-])c(=O)[nH]1
inactive: [15] 93 % of control | dose: 200.0 mg/kg/injection, schedule: Q01DX009 (ip), vehicle: saline with Tween-80 97 % of control

O=C(O)CCCc1ccc2c(c1)-c1ccccc1S2=O (stereo not drawn)
inactive: dose: 100.0 mg/kg/injection, schedule: Q04DX003 (ip), vehicle: saline with Tween-80 106 % of control | dose: 200.0 mg/kg/injection, schedule: Q04DX003 (ip), vehicle: saline with Tween-80 109 % of control | dose: 400.0 mg/kg/injection, schedule: Q04DX003 (ip), vehicle: saline with Tween-80 110 % of control

Clc1cccc(Cl)c1C[n+]1ccccc1
inactive: dose: 9.38 mg/kg/injection, schedule: Q01DX001 (ip), vehicle: saline 110 % of control | dose: 18.75 mg/kg/injection, schedule: Q01DX001 (ip), vehicle: saline 110 % of control

Cc1ncc(C(=O)O)[nH]1
inactive: [4] 91 % of control | [8] 89 % of control | [9] 91 % of control

O=C1NCC(Nc2ccc(Br)cc2Cl)C(=O)N1 (stereo not drawn)
inactive: dose: 100.0 mg/kg/injection, schedule: Q01DX Z (ip), vehicle: methylcellulose (MC) 96 % of control | dose: 200.0 mg/kg/injection, schedule: Q01DX Z (ip), vehicle: methylcellulose (MC) 90 % of control

Clc1ccccc1C(c1ccc(-c2ccccc2)cc1)(c1ccc(-c2ccccc2)cc1)n1ccnc1
inactive: [12] 95 % of control | [13] 104 % of control | [14] 90 % of control

CC1CCN(C(=O)Nc2ccccc2)CC1
inactive: [7] 98 % of control | dose: 200.0 mg/kg/injection, schedule: Q04DX002 (ip), vehicle: Klucel (hydroxypropylcellulose) (HPC) 117 % of control | dose: 400.0 mg/kg/injection, schedule: Q04DX002 (ip), vehicle: Klucel (hydroxypropylcellulose) (HPC) 103 % of control

COC(=O)Nc1ccc(C(C)=O)cc1
inactive: dose: 20.0 mg/kg/injection, schedule: Q01DX009 (ip), vehicle: saline with Tween-80 95 % of control | dose: 40.0 mg/kg/injection, schedule: Q01DX009 (ip), vehicle: saline with Tween-80 91 % of control | dose: 80.0 mg/kg/injection, schedule: Q01DX009 (ip), vehicle: saline with Tween-80 93 % of control | dose: 160.0 mg/kg/injection, schedule: Q01DX009 (ip), vehicle: saline with Tween-80 101 % of control | dose: 320.0 mg/kg/injection, schedule: Q01DX009 (ip), vehicle: saline with Tween-80 90 % of control

CN(C)S(=O)(=O)c1ccc(NC(=O)OC(c2ccccc2)(c2ccccc2)c2ccccc2)cc1
inactive: [4] 96 % of control | [8] 92 % of control | [9] 96 % of control

COc1cccc(CCNC(=O)CCC#N)c1
inactive: dose: 75.0 mg/kg/injection, schedule: Q01DX009 (ip), vehicle: saline 112 % of control | [12] 97 % of control | dose: 150.0 mg/kg/injection, schedule: Q01DX009 (ip), vehicle: saline 93 % of control | [13] 87 % of control | dose: 300.0 mg/kg/injection, schedule: Q01DX009 (ip), vehicle: saline 100 % of control | [14] 90 % of control

From PubChem BioAssay AID248 (DTP/NCI, 2004)
